Measurements taken from US9975860B2, “Anti-angiogenic compounds” (UNIVERSITY COLLEGE DUBLIN—NATIONAL UNIVERSITY OF IRELAND, …, priority 2014, dated 2018).
Entries after “also recorded” stand apart in the source; their conditions may differ.

Assays:
[1] = tested on: oxygen induced mouse model of retinopathy; assay: Mouse oxygen-induced retinopathy model of neovascularisation; format: in vivo; conditions: 5 and 20 μM; intravitreal injection on P12, retinas analysed P17; mouse OIR; hydrochloride
From the text: The mouse oxygen-induced retinopathy model was used to test the anti-angiogenic activity of compounds 4, 12 and 18. Mouse pups (together with their dams) were placed in 75% oxygen from postnatal day (P) 7 to P12, causing a regression of their retinal blood vessels. On P12, pups were placed back in normoxia (21%) causing a regrowth of retinal blood vessels. Pups received an intravitreal injection on P12, of compound 4, 12, 18 or vehicle control—Hank's Balanced Salt Solution, coinciding with their return to normoxia. Pups were culled on P17 and enucleated. Eyes were fixed in 4% paraformaldehyde, washed and dissected to form retinal flatmounts. Flatmounts were stained with isolectin to visualise blood vessels and imaged. The central avascular area (lacking a network of blood vessels) was quantified using FIJI image analysis software.

mouse aortic ring = assay: Ex vivo mouse aortic ring assay (sprout formation); conditions: 10 μM; C57/BL6 mouse aortic rings in matrigel; vs 0.1% DMSO; hydrochloride
Experimental: Aortae from sex matched C57/BL6 littermates were cleansed of adipose tissue, cut into 2 mm rings and immersed in matrigel. Aortic rings (6 per experiment) were treated with 0.1% DMSO (vehicle control/VC) or with 10 μM of Compound 4, Compound 12, Compound 15 or Compound 20. Sprouts from the perimeter of the aortic ring were counted and quantified as percentage of vehicle control (VC).

[2] = tested on: intersegmental vasculature in zebrafish; assay: Quantification of intersegmental vessel number in zebrafish; format: in vivo; conditions: 10 μM; zebrafish embryos treated 6 hpf to 48 hpf
Experimental: At 6 hours post fertilisation, 5 embryos per well were placed in 400 μL of embryo medium/0.1% DMSO and incubated with 10 μM compound at 28° C. on a 14 h light/10 h dark cycle. At 48 hpf larvae were manually dechorionated, euthanised, and fixed in 4% PFA at 4° C. overnight before analysis. The larvae were then washed with PBS and transferred to depression slides for observation under epi-fluorescence in an Olympus SZX16 fluorescent microscope. The number of intersegmental vessels was counted and the average number was graphed for each drug.
(§1) All experimental protocols were carried out as per example 1 and 2. Briefly, zebrafish larvae were treated with 10 μM of AT-051/41206012 (chemical name 2-[2-(2-methoxyphenyl)ethenyl]pyrazine) purchased from Specs (The Netherlands). At 6 or 48 hours post fertilisation (hpf), 5 embryos per well were placed in 400 μl of Embryo Medium/0.1% DMSO and incubated with 10 μM AT-051/41206012 at 28° C. on a 14 h light/10 h dark cycle. Larvae were treated from 6-48 hpf (intersegmental vessel study) or from 48 to 120 hpf (primary hyaloid vessel study). At the end of the study, larvae were euthanized and fixed in 4% PFA at 4° C. overnight before analysis.
(§2) The number of intersegmental vessels was counted and the average number was graphed for each drug. Right lenses were dissected from the larvae and transferred to depression slides for observation and the number of primary hyaloid vessels radiating from the back of the lens (3-4 main branches at 5 dpf in controls and previously described), was counted and the average number was graphed for each drug.

[3] = tested on: primary hyaloid vessels in zebrafish; assay: Quantification of primary hyaloid vasculature branch number in Tg(fli1:EGFP) zebrafish; format: in vivo
Experimental: All experiments were carried out under ethical approval granted by the UCD animal research ethics committee. Tg(fli1:EGFP) zebrafish were maintained according to standard procedures on a 14 hr light/10 hr dark cycle at 28° C. Embryos were obtained by natural spawning and developmental stages established by time and morphological criteria. At 48 hours post fertilisation (hpf), 5 embryos per well were placed in 400 μl of Embryo Medium/0.1% DMSO and incubated with compound (typically, 10 μM) at 28° C. on a 14 h light/10 h dark cycle. At 5 days post fertilisation (dpf), larvae were euthanised, and fixed in 4% PFA at 4° C. overnight before analysis.
Prior to analysis of the intraocular vasculature, the control and treated larvae were observed under an Olympus SZX16 stereo zoom microscope and screened for general malformations. Overall patterning of the vasculature (fin, gut and intersegmental vessels) was examined for abnormalities. Right lenses were dissected from the larvae and transferred to depression slides for observation under epi-fluorescence in the Olympus SZX16. Patterning of the hyaloid vessels on the treated larval lenses was compared to 0.1% DMSO controls and the archetypal pattern previously described (Alvarez et al., 2007; Alvarez et al., 2009). The number of primary vessels radiating from the back of the lens (3-4 main branches at 5 dpf in controls and previously described), was counted and the average number was graphed for each drug.
as §1, §2

Structure (SMILES): C/C(=C\c1ccccc1O)c1cnccn1.Cl [Compound 12, (E)-2-[2-(Pyrazin-2-yl)prop-1-enyl]phenol hydrochloride]
- retinal neovascularisation / revascularisation (central avascular area) [1]: significantly reduces retinal neovascularisation; also recorded: inhibits retinal revascularisation in a statistically significant manner
- angiogenesis (sprout formation) in aortic rings (mouse aortic ring): block angiogenesis (sprout formation); also recorded: inhibit the formation of sprouts in a statistically significant manner
- inhibition of developmental angiogenesis of intersegmental vessels (number of intersegmental vessels) [2]: inhibit developmental angiogenesis of zebrafish intersegmental vessels in a statistically significant manner
- inhibition of developmental angiogenesis of the hyaloid vasculature (number of primary hyaloid vessels) ([3]; 10 μM, zebrafish larvae treated 48 hpf to 5 dpf, vs 0.1% DMSO control): inhibit developmental angiogenesis of the zebrafish hyaloid vasculature in a statistically significant manner
- inhibition of developmental angiogenesis of the hyaloid vasculature (number of primary hyaloid vessels) ([3]; concentrations below 10 μM (range 1, 2.5, 5, 7.5 and 10 μM tested), zebrafish larvae 48 hpf to 5 dpf): inhibit developmental angiogenesis of the zebrafish hyaloid vasculature in a statistically significant manner
